Measured values taken from paper PMC4685510, “A Cell Biologist’s Field Guide to Aurora Kinase Inhibitors” (Frontiers in Oncology, 2015).
Read-outs that look alike come from different tables or passages of the source.

Legend:
Test in all cases: biochemical
Assay type in all cases: biochemical
[1] = target: 363 human kinases (including Aurora A/B/C) (Homo sapiens, UniProt Q13627); conditions: DYRK1/DYRK1A, [ATP] 50 µM; for remaining activity at 0.1 µM: 100 nM; for remaining activity at 0.1 µM / remaining activity at 0.5 µM: read-out: % Enzyme Activity (relative to DMSO controls)
Description: (§1) However, the Aurora A/B selectivity ratios derived from our in vitro and in vivo data can be compared to prioritize inhibitors.

[2] = target: T1, 363 human kinases (including Aurora A/B/C) (Homo sapiens, UniProt Q14164); conditions: for remaining activity at 0.1 µM: 100 nM
T1 sequence (Q14164 1-716): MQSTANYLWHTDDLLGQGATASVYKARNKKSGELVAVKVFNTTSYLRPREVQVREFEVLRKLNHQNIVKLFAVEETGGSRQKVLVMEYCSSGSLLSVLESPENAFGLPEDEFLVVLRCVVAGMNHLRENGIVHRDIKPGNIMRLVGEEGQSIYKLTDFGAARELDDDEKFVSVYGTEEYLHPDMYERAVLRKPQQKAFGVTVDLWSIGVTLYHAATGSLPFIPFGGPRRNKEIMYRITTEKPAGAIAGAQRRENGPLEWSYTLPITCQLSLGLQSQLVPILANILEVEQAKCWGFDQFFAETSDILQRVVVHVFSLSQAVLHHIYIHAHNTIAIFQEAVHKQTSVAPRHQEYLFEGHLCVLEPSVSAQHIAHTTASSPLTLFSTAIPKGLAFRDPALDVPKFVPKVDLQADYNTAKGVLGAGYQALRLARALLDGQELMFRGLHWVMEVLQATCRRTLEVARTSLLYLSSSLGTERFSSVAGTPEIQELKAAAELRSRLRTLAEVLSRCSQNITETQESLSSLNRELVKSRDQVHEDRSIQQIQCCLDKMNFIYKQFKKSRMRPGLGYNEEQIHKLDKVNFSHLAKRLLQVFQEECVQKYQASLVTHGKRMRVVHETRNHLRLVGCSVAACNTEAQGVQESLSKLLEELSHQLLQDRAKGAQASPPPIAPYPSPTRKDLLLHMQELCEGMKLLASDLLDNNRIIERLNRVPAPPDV
Description: as §1

[3] = target: T2, 363 human kinases (including Aurora A/B/C) (Homo sapiens, UniProt Q13237); conditions: PKG2/PRKG2; for remaining activity at 0.1 µM: 100 nM; for remaining activity at 0.1 µM / remaining activity at 0.5 µM: read-out: % Enzyme Activity (relative to DMSO controls)
T2 sequence (Q13237 1-762): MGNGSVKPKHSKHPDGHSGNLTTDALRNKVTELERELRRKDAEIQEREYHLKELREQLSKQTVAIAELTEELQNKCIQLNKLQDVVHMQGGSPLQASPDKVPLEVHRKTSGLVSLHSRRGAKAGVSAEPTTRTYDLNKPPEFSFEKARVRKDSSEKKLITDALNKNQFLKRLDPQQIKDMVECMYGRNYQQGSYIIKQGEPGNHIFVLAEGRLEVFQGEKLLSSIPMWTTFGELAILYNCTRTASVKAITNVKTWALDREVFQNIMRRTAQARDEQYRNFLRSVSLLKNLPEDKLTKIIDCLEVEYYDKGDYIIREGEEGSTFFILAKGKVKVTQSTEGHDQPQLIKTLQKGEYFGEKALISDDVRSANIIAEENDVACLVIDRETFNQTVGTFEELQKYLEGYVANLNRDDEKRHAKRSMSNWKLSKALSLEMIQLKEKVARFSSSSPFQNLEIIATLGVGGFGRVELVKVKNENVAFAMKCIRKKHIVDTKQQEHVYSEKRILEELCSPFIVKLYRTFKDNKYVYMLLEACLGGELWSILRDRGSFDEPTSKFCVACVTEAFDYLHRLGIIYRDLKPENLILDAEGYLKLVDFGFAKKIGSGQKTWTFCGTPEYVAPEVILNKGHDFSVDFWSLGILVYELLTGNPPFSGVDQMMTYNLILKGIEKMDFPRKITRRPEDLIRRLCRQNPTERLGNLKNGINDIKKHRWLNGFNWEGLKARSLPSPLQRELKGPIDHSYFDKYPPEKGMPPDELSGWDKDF
Description: as §1

[4] = target: 363 human kinases (including Aurora A/B/C) (Homo sapiens, UniProt Q96RR4); conditions: CAMKK2, [ATP] 30 µM; for remaining activity at 0.1 µM: 100 nM; for remaining activity at 0.1 µM / remaining activity at 0.5 µM: read-out: % Enzyme Activity (relative to DMSO controls)
Chain of 363 human kinases (including Aurora A/B/C) (Homo sapiens, UniProt Q96RR4) (Q96RR4 whole entry): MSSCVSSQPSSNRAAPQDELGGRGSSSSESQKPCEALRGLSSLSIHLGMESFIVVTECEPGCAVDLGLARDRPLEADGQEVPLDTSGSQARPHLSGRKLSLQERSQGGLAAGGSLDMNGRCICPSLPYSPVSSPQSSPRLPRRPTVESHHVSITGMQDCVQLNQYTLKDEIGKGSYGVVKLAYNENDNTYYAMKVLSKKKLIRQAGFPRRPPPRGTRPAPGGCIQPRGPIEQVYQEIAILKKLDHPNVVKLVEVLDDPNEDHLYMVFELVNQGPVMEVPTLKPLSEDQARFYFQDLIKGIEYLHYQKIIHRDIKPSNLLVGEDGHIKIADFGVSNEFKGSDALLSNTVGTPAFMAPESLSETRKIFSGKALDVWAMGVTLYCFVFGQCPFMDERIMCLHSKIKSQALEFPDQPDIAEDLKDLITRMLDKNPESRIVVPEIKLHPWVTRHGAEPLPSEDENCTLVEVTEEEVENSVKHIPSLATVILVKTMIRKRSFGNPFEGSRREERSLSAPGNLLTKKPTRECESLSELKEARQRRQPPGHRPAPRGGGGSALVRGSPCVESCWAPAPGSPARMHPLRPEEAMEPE
Description: as §1

[5] = target: 363 human kinases (including Aurora A/B/C) (Homo sapiens, UniProt P45983); conditions: JNK1; for remaining activity at 0.1 µM: 100 nM; for remaining activity at 0.1 µM / remaining activity at 0.5 µM: read-out: % Enzyme Activity (relative to DMSO controls)
Chain of 363 human kinases (including Aurora A/B/C) (Homo sapiens, UniProt P45983) (P45983 whole entry): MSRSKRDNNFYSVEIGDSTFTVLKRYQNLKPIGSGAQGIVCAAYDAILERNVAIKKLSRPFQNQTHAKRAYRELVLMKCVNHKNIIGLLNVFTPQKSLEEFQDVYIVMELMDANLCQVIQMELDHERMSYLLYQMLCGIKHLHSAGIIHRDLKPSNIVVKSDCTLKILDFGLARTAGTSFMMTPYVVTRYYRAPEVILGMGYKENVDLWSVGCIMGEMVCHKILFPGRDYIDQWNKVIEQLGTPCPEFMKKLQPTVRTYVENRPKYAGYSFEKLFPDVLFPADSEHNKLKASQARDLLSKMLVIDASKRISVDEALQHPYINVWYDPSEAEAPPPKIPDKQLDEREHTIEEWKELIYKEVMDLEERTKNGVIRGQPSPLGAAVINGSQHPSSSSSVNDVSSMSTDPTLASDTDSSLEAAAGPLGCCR
Description: as §1

[6] = target: 363 human kinases (including Aurora A/B/C) (Homo sapiens, UniProt P51812); conditions: RSK2; for remaining activity at 0.1 µM: 100 nM; for remaining activity at 0.1 µM / remaining activity at 0.5 µM: read-out: % Enzyme Activity (relative to DMSO controls)
Chain of 363 human kinases (including Aurora A/B/C) (Homo sapiens, UniProt P51812) (P51812 whole entry): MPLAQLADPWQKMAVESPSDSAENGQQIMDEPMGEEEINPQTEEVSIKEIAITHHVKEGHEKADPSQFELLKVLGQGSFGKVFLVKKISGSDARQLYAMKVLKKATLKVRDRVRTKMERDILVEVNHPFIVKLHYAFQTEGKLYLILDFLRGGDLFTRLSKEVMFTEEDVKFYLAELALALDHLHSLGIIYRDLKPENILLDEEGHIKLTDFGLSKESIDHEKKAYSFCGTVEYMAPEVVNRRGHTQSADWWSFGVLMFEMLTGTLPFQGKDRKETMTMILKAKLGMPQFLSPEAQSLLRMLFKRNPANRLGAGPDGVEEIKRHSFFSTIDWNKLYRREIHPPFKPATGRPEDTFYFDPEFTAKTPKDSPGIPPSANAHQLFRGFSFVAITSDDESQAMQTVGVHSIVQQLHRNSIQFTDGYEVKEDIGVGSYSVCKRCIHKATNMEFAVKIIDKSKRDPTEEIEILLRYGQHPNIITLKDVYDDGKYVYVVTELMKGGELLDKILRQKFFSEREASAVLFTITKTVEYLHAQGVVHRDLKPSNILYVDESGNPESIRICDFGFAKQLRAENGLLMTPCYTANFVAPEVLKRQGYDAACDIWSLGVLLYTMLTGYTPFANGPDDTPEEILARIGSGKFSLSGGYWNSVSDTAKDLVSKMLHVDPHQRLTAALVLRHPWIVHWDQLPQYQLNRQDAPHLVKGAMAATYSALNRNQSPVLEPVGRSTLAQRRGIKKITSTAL
Description: as §1

[7] = target: T3, 363 human kinases (including Aurora A/B/C) (Homo sapiens, UniProt Q99759); conditions: MEKK3; for remaining activity at 0.1 µM: 100 nM; for remaining activity at 0.1 µM / remaining activity at 0.5 µM: read-out: % Enzyme Activity (relative to DMSO controls)
T3 sequence (Q99759 1-626): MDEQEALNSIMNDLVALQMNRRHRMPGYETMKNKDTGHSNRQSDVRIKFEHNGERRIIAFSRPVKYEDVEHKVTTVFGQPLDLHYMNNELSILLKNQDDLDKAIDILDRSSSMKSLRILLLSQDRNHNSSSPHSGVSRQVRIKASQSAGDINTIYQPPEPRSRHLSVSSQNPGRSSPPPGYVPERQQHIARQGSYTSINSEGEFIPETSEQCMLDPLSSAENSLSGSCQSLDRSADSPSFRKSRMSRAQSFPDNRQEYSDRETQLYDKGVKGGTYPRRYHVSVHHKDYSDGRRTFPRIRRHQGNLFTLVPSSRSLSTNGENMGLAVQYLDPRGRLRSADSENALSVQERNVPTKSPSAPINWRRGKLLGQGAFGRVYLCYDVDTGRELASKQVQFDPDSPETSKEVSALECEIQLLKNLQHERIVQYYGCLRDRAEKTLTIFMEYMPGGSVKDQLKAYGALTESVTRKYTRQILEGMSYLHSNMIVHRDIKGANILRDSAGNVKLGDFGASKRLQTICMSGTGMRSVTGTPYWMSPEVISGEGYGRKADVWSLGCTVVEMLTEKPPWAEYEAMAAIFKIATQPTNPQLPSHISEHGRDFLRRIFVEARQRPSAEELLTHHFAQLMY
Description: as §1

[8] = target: 363 human kinases (including Aurora A/B/C) (Homo sapiens, UniProt Q8IY84); conditions: NIM1; for remaining activity at 0.1 µM: 100 nM; for remaining activity at 0.1 µM / remaining activity at 0.5 µM: read-out: % Enzyme Activity (relative to DMSO controls)
Chain of 363 human kinases (including Aurora A/B/C) (Homo sapiens, UniProt Q8IY84) (Q8IY84 whole entry): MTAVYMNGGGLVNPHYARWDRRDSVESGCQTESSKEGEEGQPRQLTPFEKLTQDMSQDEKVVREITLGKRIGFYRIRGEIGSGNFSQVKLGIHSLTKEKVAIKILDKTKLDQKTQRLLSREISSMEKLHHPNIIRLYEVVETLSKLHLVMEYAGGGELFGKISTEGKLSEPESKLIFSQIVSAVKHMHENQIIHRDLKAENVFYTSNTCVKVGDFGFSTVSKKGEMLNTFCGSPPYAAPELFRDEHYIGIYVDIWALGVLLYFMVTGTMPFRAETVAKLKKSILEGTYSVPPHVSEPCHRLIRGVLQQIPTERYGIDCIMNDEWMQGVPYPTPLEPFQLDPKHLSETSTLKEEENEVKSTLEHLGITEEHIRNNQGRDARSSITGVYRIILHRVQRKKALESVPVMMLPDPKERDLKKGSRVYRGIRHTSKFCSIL
Description: as §1

[9] = target: 363 human kinases (including Aurora A/B/C) (Homo sapiens, UniProt Q00536); conditions: CDK16/cyclin Y (PCTAIRE), [ATP] 15 µM; for remaining activity at 0.1 µM: 100 nM; for remaining activity at 0.1 µM / remaining activity at 0.5 µM: read-out: % Enzyme Activity (relative to DMSO controls)
Chain of 363 human kinases (including Aurora A/B/C) (Homo sapiens, UniProt Q00536) (Q00536 whole entry): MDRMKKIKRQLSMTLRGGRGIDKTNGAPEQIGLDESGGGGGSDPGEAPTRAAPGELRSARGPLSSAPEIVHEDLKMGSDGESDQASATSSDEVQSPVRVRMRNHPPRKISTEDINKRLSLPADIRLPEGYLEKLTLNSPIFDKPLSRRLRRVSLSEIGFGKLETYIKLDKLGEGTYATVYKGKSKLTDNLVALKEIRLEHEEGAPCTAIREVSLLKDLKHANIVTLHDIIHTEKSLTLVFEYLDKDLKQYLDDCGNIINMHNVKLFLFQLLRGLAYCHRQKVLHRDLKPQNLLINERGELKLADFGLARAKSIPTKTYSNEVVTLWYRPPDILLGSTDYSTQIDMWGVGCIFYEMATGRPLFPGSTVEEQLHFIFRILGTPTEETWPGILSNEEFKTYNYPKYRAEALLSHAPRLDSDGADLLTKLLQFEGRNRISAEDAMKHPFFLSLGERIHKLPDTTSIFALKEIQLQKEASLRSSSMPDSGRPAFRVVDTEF
Description: as §1

[10] = IKKe/IKBKE, 500 nM, read-out: % Enzyme Activity (relative to DMSO controls)

SMILES | remaining activity at 0.1 µM [1] | remaining activity at 0.1 µM [3] | remaining activity at 0.1 µM [4] | remaining activity at 0.1 µM [5] | remaining activity at 0.1 µM [6] | remaining activity at 0.1 µM [7] | remaining activity at 0.1 µM [8] | remaining activity at 0.1 µM [9] | remaining activity at 0.5 µM ([1]; 500 nM) | remaining activity at 0.5 µM [2, 10] | remaining activity at 0.5 µM ([3]; 500 nM) | remaining activity at 0.5 µM ([4]; 500 nM) | remaining activity at 0.5 µM ([5]; 500 nM) | remaining activity at 0.5 µM ([6]; 500 nM) | remaining activity at 0.5 µM ([7]; 500 nM) | remaining activity at 0.5 µM ([8]; 500 nM) | remaining activity at 0.5 µM ([9]; 500 nM) | other results
CCn1cc(-c2ccnc3[nH]c(-c4cccc(CN(C)C)c4)cc23)c(-c2ccc(NC(=O)N(C)C)cc2)n1 [GSK1070916] | 97.5% | 97.2% | 76.9% | 98% | 107% | 97.2% | 94.8% | 107% | – | – | – | – | – | – | – | – | – | remaining activity at 0.1 µM ([2]; read-out: % Enzyme Activity (relative to DMSO controls), IKKe/IKBKE): 84.4%
O=C(O)[C@]1(Cc2cccc(Nc3nccs3)n2)CC[C@@H](Oc2cccc(Cl)c2F)CC1 [MK-5108] | 100% | 106% | 111% | 61.8% | 101% | 96.3% | 96.8% | 83.6% | 89.7% | 80.6% | 97.3% | 87.7% | 29.3% | 99.5% | 117% | 96.4% | 98% | remaining activity at 0.1 µM ([2]; IKKe/IKBKE, read-out: % Enzyme Activity (relative to DMSO controls)): 98.3%
O=C(c1cccc(Cl)c1F)N1CCN(Cc2cccc(Nc3nccs3)n2)CC1 [MK-8745] | – | – | – | – | – | – | – | – | 96.7% | 92.2% | 95.3% | 204% | 13.8% | 105% | 114% | 97.2% | 111% | % Enzyme Activity (relative to DMSO controls) ([1]; 500 nM): 93.95%; % Enzyme Activity (relative to DMSO controls) ([2]; IKKe/IKBKE, 500 nM): 89.47%; % Enzyme Activity (relative to DMSO controls) ([3]; 500 nM): 95.25%; % Enzyme Activity (relative to DMSO controls) ([4]; 500 nM): 199.08%; % Enzyme Activity (relative to DMSO controls) ([5]; 500 nM): 13.45%; % Enzyme Activity (relative to DMSO controls) ([6]; 500 nM): 101.95%; % Enzyme Activity (relative to DMSO controls) ([7]; 500 nM): 111.88%; % Enzyme Activity (relative to DMSO controls) ([8]; 500 nM): 97.14%; % Enzyme Activity (relative to DMSO controls) ([9]; 500 nM): 110.95%
